Converted amounts (≈) assume the structure as drawn. Where two headings read alike, the source gives them in different places.
Key:
[1] = test system: K. pn GC 6488 (TEM-1 + SHV-5 + SHV-7); test: MIC microbroth dilution; β-lactamase class A, A (ESBL); format: cell-based, K. pneumoniae; settings: Klebsiella pneumoniae, Cefepime alone, read-out: MIC
Experimental: (§1) The in vitro activities of the antibiotics were determined by the microbroth dilution method as recommended by the National Committee for Clinical Laboratory Standards (NCCLS). (NCCLS. 2000. Methods for Dilution Antimicrobial Susceptibility Tests for Bacteria That Grow Aerobically; Approved Standards: M7-A5, vol. 19. National Committee for Clinical Laboratory Standards, Villanova, Pa.). Mueller-Hinton II broth (MHBII)(BBL Cockeysville, Md.), was used for the testing procedure. […]. The plates were incubated for 18-22 hours at 35° C. in ambient air.

[2] = test system: K. pn GC 1963 (TEM-10 + SHV-1 + SHV-ESBL); test: as above; format: cell-based, K. pneumoniae; settings: Cefepime alone
Experimental: as §1

[3] = test system: K. pn GC 6651 (TEM-1 + SHV-1 + SHV-5); test: as above; format: cell-based, K. pneumoniae; settings: Klebsiella pneumoniae, Cefepime alone, read-out: MIC
Experimental: as §1

[4] = test system: K. pn GC 2006 (TEM-10 + SHV-1); test: as above; format: cell-based, K. pneumoniae; settings: Klebsiella pneumoniae, Cefepime alone, read-out: MIC
Experimental: as §1

[5] = test system: E. coli GAR 6649 TEM, OXA, CTX (By PCR only); test: MIC microbroth dilution; β-lactamase class A, A (ESBL), D; format: cell-based; settings: Cefepime alone
Experimental: as §1

[6] = test system: E. coli GC 2844 (none); test: MIC microbroth dilution; β-lactamase class none; format: cell-based; settings: Cefepime alone
Experimental: as §1

[7] = test system: E. coli GC 2804 (imp); test: MIC microbroth dilution; β-lactamase class none; format: cell-based; settings: Escherichia coli, Cefepime alone
Experimental: as §1

[8] = test system: E. coli ATCC 25922 (none); test: MIC microbroth dilution; β-lactamase class none; format: cell-based; settings: Escherichia coli, ATCC25922, E. coli ATCC 25922, Cefepime alone, read-out: MIC
Experimental: as §1

[9] = test system: E. cloacae GC 1475 (P99); test: MIC microbroth dilution; β-lactamase class C; format: cell-based; settings: Cefepime alone
Experimental: as §1

[10] = test system: E. coli GC 6539 CMY-2; test: MIC microbroth dilution; β-lactamase class C; format: cell-based
Experimental: as §1

[11] = test system: P. aeruginosa GC 3153 Inducible AmpC; test: MIC microbroth dilution; β-lactamase class C; format: cell-based; settings: Cefepime alone
Experimental: as §1

[12] = test system: S. marcescens GC 4132 (AmpC); test: MIC microbroth dilution; β-lactamase class C; format: cell-based; settings: Serratia marcescens, Cefepime alone, read-out: MIC
Experimental: as §1

[13] = test system: K. pneumoniae GC 7824 Fox 5; test: MIC microbroth dilution; β-lactamase class C; format: cell-based
Experimental: as §1

[14] = test system: K. pneumoniae GC 7823 Fox 5; test: MIC microbroth dilution; β-lactamase class C; format: cell-based; settings: Klebsiella pneumoniae, GC7823FOX5, K. pneumoniae GC 7823, Cefepime alone, read-out: MIC
Experimental: as §1

[15] = test system: P. aeruginosa GC 1764 (AmpC); test: MIC microbroth dilution; β-lactamase class C; format: cell-based; settings: Cefepime alone
Experimental: as §1

[16] = test system: E. coli GC 2894 (AmpC); test: MIC microbroth dilution; β-lactamase class C; format: cell-based; settings: Escherichia coli, Cefepime alone, read-out: MIC
Experimental: as §1

[17] = test system: S. marcescens GC 4145 Inducible AmpC; test: MIC microbroth dilution; β-lactamase class C; format: cell-based; settings: Serratia marcescens, Cefepime alone, read-out: MIC
Experimental: as §1

[18] = test system: E. cloacae GC 4142 (AmpC); test: MIC microbroth dilution; β-lactamase class C; format: cell-based; settings: Enterobacter cloacae, Cefepime alone, read-out: MIC
Experimental: as §1

[19] = test system: E. aerogenes 1697-MP GC 7845 AmpC; test: MIC microbroth dilution; β-lactamase class C; format: cell-based; settings: E. aerogenes GC 7845, Cefepime alone
Experimental: as §1

[20] = test system: S. marcescens PT 696 Inducible AmpC; test: MIC microbroth dilution; β-lactamase class C; format: cell-based; settings: Serratia marcescens, Cefepime alone, read-out: MIC
Experimental: as §1

[21] = test system: K. pn GC 3104 (MIR-1 + TEM-1); test: MIC microbroth dilution; β-lactamase class A, C; format: cell-based, K. pneumoniae; settings: Klebsiella pneumoniae, Cefepime alone, read-out: MIC
Experimental: as §1

[22] = test system: K. pn GC 6655 (TEM-1 + ACT-1); test: MIC microbroth dilution; β-lactamase class A, C; format: cell-based, K. pneumoniae; settings: Klebsiella pneumoniae, Cefepime alone, read-out: MIC
Experimental: as §1

[23] = test system: C. freundii GC 4171 TEM-1 + InducibleAmpC; test: MIC microbroth dilution; β-lactamase class A, C; format: cell-based
Experimental: as §1

[24] = test system: S. marcescens GC 1781 (Sme-1 + AmpC); test: MIC microbroth dilution; β-lactamase class A (Cb'ase), C; format: cell-based; settings: Serratia marcescens, Cefepime alone, read-out: MIC
Experimental: as §1

[25] = test system: K. pneumoniae GC 7635 SHV-1, KPC2; test: MIC microbroth dilution; β-lactamase class A, A (Cb'ase); format: cell-based; settings: Cefepime alone
Experimental: as §1

[26] = test system: K. pneumoniae GC 7632 TEM-1 KPC-2, SHV-7, SHV-12; test: MIC microbroth dilution; β-lactamase class A, A (Cb'ase), A (ESBL); format: cell-based; settings: Cefepime alone
Experimental: as §1

[27] = test system: E. cloacae GC 7052 SHV-5, Amp C inducable; test: MIC microbroth dilution; β-lactamase class A (ESBL), C; format: cell-based; settings: Cefepime alone
Experimental: as §1

[28] = test system: E. aerogenes GC 7039 TEM-4, Amp C inducable; test: as above; format: cell-based; settings: Klebsiella aerogenes, Cefepime alone, read-out: MIC
Experimental: as §1

[29] = test system: E. cloacae GC 7065 TEM-26, SHV-12 Amp C inducable; test: as above; format: cell-based; settings: Enterobacter cloacae, Cefepime alone, read-out: MIC
Experimental: as §1

[30] = test system: M. morganii GC 1617 TEM-10 + inducible AmpC; test: as above; format: cell-based; settings: Cefepime alone
Experimental: as §1

[31] = test system: E. aerogenes GC 7036 TEM-24, Amp C inducable; test: as above; format: cell-based; settings: Klebsiella aerogenes, Cefepime alone, read-out: MIC
Experimental: as §1

[32] = test system: A. baumannii GC 6662 IMI-R; test: MIC microbroth dilution; class PBP (penicillin binding protein); format: cell-based; settings: Cefepime alone
Experimental: as §1

[33] = test system: A. baumannii GC 6660 IMI-R; test: as above; format: cell-based; settings: Cefepime alone
Experimental: as §1

[34] = test system: A. baumannii GC 6661 IMI-R; test: as above; format: cell-based; settings: Cefepime alone
Experimental: as §1

[35] = Klebsiella pneumoniae, control of Compound 1 test, read-out: MIC
[36] = Escherichia coli, control of Compound 1 test, read-out: MIC
[37] = Enterobacter cloacae, control of Compound 1 test, read-out: MIC
[38] = Cefepime alone, control of Compound 2 test
[39] = Pseudomonas aeruginosa, control of Compound 1 test, read-out: MIC

CO/N=C(\C(=O)N[C@@H]1C(=O)N2C(C(=O)[O-])=C(C[N+]3(C)CCCC3)CS[C@H]12)c1csc(N)n1 [Cefepime, reference compound]
MIC ([1]; control of Compound 1 test): 8 µg/mL (≈ 16.6 µM)
MIC ([1]; control of Compound 2 test): 4 µg/mL (≈ 8.32 µM)
MIC ([2]; control of Compound 2 test): >16 µg/mL
MIC [2, 35]: > 16 µg/mL
MIC ([3]; control of Compound 1 test): 8 µg/mL (≈ 16.6 µM)
MIC ([3]; control of Compound 2 test): 4 µg/mL (≈ 8.32 µM)
MIC ([4]; control of Compound 1 test): > 16 µg/mL
MIC ([4]; control of Compound 2 test): 8 µg/mL (≈ 16.6 µM)
MIC ([5]; control of Compound 2 test): >16 µg/mL
MIC [5, 36]: > 16 µg/mL
MIC ([6]; control of Compound 2 test): 0.06 µg/mL (≈ 0.125 µM)
MIC [6, 36]: 0.06 µg/mL (≈ 0.125 µM)
MIC ([7]; control of Compound 1 test): 0.03 µg/mL (≈ 0.0624 µM)
MIC ([7]; control of Compound 2 test): < 0.015 µg/mL
MIC ([8]; control of Compound 1 test): 0.03 µg/mL (≈ 0.0624 µM)
MIC ([8]; control of Compound 2 test): 0.06 µg/mL (≈ 0.125 µM)
MIC ([9]; control of Compound 2 test): 2 µg/mL (≈ 4.16 µM)
MIC [9, 37]: 2 µg/mL (≈ 4.16 µM)
MIC [10, 38]: 2 µg/mL (≈ 4.16 µM)
MIC ([10]; Escherichia coli, GC6539CMY2, Cefepime alone, control of Compound 1 test, read-out: MIC): 2 µg/mL (≈ 4.16 µM)
MIC ([11]; control of Compound 2 test): 16 µg/mL (≈ 33.3 µM)
MIC [11, 39]: 16 µg/mL (≈ 33.3 µM)
MIC ([12]; control of Compound 1 test): 0.5 µg/mL (≈ 1.04 µM)
MIC ([12]; control of Compound 2 test): 2 µg/mL (≈ 4.16 µM)
MIC [13, 38]: 2 µg/mL (≈ 4.16 µM)
MIC ([13]; Klebsiella pneumoniae, GC7824FOX5, Cefepime alone, control of Compound 1 test, read-out: MIC): 2 µg/mL (≈ 4.16 µM)
MIC ([14]; control of Compound 1 test): 0.5 µg/mL (≈ 1.04 µM)
MIC ([14]; control of Compound 2 test): 1 µg/mL (≈ 2.08 µM)
MIC ([15]; control of Compound 2 test): 8 µg/mL (≈ 16.6 µM)
MIC [15, 39]: 8 µg/mL (≈ 16.6 µM)
MIC ([16]; control of Compound 1 test): 2 µg/mL (≈ 4.16 µM)
MIC ([16]; control of Compound 2 test): 4 µg/mL (≈ 8.32 µM)
MIC ([17]; control of Compound 1 test): 1 µg/mL (≈ 2.08 µM)
MIC ([17]; control of Compound 2 test): 0.5 µg/mL (≈ 1.04 µM)
MIC ([18]; control of Compound 1 test): > 16 µg/mL
MIC ([18]; control of Compound 2 test): 8 µg/mL (≈ 16.6 µM)
MIC ([19]; control of Compound 2 test): 0.25 µg/mL (≈ 0.52 µM)
MIC ([19]; Klebsiella aerogenes, control of Compound 1 test, read-out: MIC): 0.25 µg/mL (≈ 0.52 µM)
MIC ([20]; control of Compound 1 test): 0.25 µg/mL (≈ 0.52 µM)
MIC ([20]; control of Compound 2 test): 0.5 µg/mL (≈ 1.04 µM)
MIC ([21]; control of Compound 1 test): 0.5 µg/mL (≈ 1.04 µM)
MIC ([21]; control of Compound 2 test): 1 µg/mL (≈ 2.08 µM)
MIC ([22]; control of Compound 1 test): 2 µg/mL (≈ 4.16 µM)
MIC ([22]; control of Compound 2 test): 4 µg/mL (≈ 8.32 µM)
MIC ([23]; C. freundii GC 4171, Cefepime alone, control of Compound 2 test): 4 µg/mL (≈ 8.32 µM)
MIC ([23]; Citrobacter freundii): 4 µg/mL (≈ 8.32 µM)
MIC ([24]; control of Compound 1 test): 0.25 µg/mL (≈ 0.52 µM)
MIC ([24]; control of Compound 2 test): 0.06 µg/mL (≈ 0.125 µM)
MIC ([25]; control of Compound 2 test): >16 µg/mL
MIC [25, 35]: > 16 µg/mL
MIC ([26]; control of Compound 2 test): >16 µg/mL
MIC [26, 35]: > 16 µg/mL
MIC ([27]; control of Compound 2 test): 16 µg/mL (≈ 33.3 µM)
MIC [27, 37]: 16 µg/mL (≈ 33.3 µM)
MIC ([28]; control of Compound 1 test): 16 µg/mL (≈ 33.3 µM)
MIC ([28]; control of Compound 2 test): > 16 µg/mL
MIC ([29]; control of Compound 1 test): 4 µg/mL (≈ 8.32 µM)
MIC ([29]; control of Compound 2 test): 16 µg/mL (≈ 33.3 µM)
MIC ([30]; control of Compound 2 test): 0.25 µg/mL (≈ 0.52 µM)
MIC ([30]; Morganella morganii, control of Compound 1 test, read-out: MIC): 0.25 µg/mL (≈ 0.52 µM)
MIC ([31]; control of Compound 1 test): 2 µg/mL (≈ 4.16 µM)
MIC ([31]; control of Compound 2 test): 4 µg/mL (≈ 8.32 µM)
MIC ([32]; Acinetobacter baumannii, GC6662IMIR, control of Compound 1 test, read-out: MIC): > 16 µg/mL
MIC ([32]; control of Compound 2 test): >16 µg/mL
MIC ([33]; Acinetobacter baumannii, GC6660IMIR, control of Compound 1 test, read-out: MIC): > 16 µg/mL
MIC ([33]; control of Compound 2 test): >16 µg/mL
MIC ([34]; Acinetobacter baumannii, GC6661IMIR, control of Compound 1 test, read-out: MIC): > 16 µg/mL
MIC ([34]; control of Compound 2 test): >16 µg/mL
